Here are results for 2 compounds from US20120264678A1, “METHODS OF USING [3.2.0] HETEROCYCLIC COMPOUNDS AND ANALOGS THEREOF FOR TREATING INFECTIOUS DISEASES” (priority 2007, published 2012).

One data set concerns any other known protease. The settings on record: Meng et al., 1999; cited from earlier work.
A short description of data set [1]: Maximum tolerated dose determination, intravenous, female BALB/c mice. It is filed as in vivo. The source says: In vivo studies were designed to determine the MTD of Salinosporamide A when administered intravenously to female BALB/c mice.
In data set [2] the target is T1, proteasome chymotrypsin-like activity in Packed Whole Blood Lysate (Mus musculus, UniProt O55234).
T1 construct: The supernatant (Packed Whole Blood Lysate, PWBL) was transferred to a fresh tube; from tissue; host or cells: packed whole blood cells of Swiss-Webster mice, hypotonic lysate
T1 sequence (O55234 60-264): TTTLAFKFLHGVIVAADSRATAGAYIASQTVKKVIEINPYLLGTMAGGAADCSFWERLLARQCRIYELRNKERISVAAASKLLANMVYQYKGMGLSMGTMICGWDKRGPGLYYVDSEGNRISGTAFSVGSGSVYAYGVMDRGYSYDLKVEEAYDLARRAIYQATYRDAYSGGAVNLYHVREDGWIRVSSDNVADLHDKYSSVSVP
The data set is described as follows: Whole blood proteasome activity (PWBL assay) after dosing of mice. Format: in vivo. The settings on record: male Swiss-Webster mice. As for the experimental part: In brief, frozen whole blood samples were thawed on ice for one hour, and resuspended in 700 μL of ice cold 5 mM EDTA, pH 8.0 in order to lyse the cells by hypotonic shock. This represents approximately 2-3 times the volume of the packed whole blood cells. Lysis was allowed to proceed for one hour, and the cellular debris was removed by centrifugation at 14,000×g for 10 minutes. The supernatant (Packed Whole Blood Lysate, PWBL) was transferred to a fresh tube, and the pellet discarded. Protein concentration of the PWBL was determined by BCA assay (Pierce) using BSA as a standard.
Proteasome activity was determined by measuring the hydrolysis of a fluorogenic substrate specific for the chymotrypsin-like activity of proteasomes (suc-LLVY-AMC, Bachem Cat. 1-1395). […] The reactions were initiated by the addition of 10 μL of 0.4 mM suc-LLVY-AMC (prepared by diluting a 10 mM solution of the peptide in DMSO 1:25 with assay buffer), and incubated in a fluorometer (Labsystems Fluoroskan) at 37° C. Hydrolysis of the substrate results in the release of free AMC, which was measured fluorometrically by using λex=390 nm and λem=460 nm. The rate of hydrolysis in this system is linear for at least one hour. The hydrolysis rate of each sample is then normalized to relative fluorescent units per milligram of protein (RFU/mg).
The vehicle control consisted of 2% DMSO in 10% solutol. […]

The test system of a further data set is IκBα, p21 and p27. Description: Western blot analyses in NF-κB/Luc 293 cells. Format: cell-based, human. The source says: (§1) Furthermore, a stable HEK293 clone (NF-κB/Luc 293) was generated carrying a luciferase reporter gene under the regulation of 5×NF-κB binding sites.
In data set [3] the test system is Mycobacterium tuberculosis. Description: Survival assays of Mycobacterium tuberculosis on agar plates after nitrite exposure. Format: cell-based. The settings on record: plating on agar after 6 days of exposure; present-tense example without data.
Data set [4] relates to NF-κB/IκB signaling pathway. The data set is described as follows: TNF-α stimulated HEK293 cells, IκBα phosphorylation and degradation. Format: cell-based, human. The following applies: HEK293 cells pre-treated 1 hour, then TNF-α stimulation. The source says:
Treatment of HEK293 cells (human embryonic kidney) with Tumor Necrosis Factor-alpha (TNF-α) induces phosphorylation and proteasome-mediated degradation of IκBα followed by NF-κB activation.

The target of another data set is proteasome (Homo sapiens, UniProt Q99436). The data set is described as follows: Trypsin-like inhibitory activity of the proteasome (summary). The following applies: proteasome source not stated. Format: biochemical.
Another data set concerns NF-κB. Description: NF-κB/Luc 293 luciferase reporter assay with TNF-α stimulation. It is filed as cell-based, human. The following applies: NF-κB/Luc 293 cells, pretreatment before TNF-α.
Source text: as §1

Setting [5] is: NF-κB/Luc 293 cells, Western blot.

As for `CC[C@H](C)[C@H](NC(=O)[C@H]([C@@H](C)CC)N(C)C(C)=O)C(=O)N[C@H](C(=O)N[C@@H](CC(C)C)C(=O)[C@@]1(C)CO1)[C@@H](C)O` [Epoxomicin], in the data set on any other known protease, the “inhibitory activity towards other proteases” value is “no inhibitory activity towards any other known protease”.
As for `C[C@@]12OC(=O)[C@]1([C@@H](O)[C@@H]1C=CCCC1)NC(=O)[C@@H]2CCCl` [Salinosporamide A], the behavioral changes result in data set [1] (during the course of the experiment) is “No behavioral changes were noted”. Further, the well tolerated dose entry in [1] (i.v. daily for five consecutive days (qdx5)) is “up to 0.1 mg/kg”. The tolerated dose result in [1] (single intravenous dose (qdx1)) is listed as “up to 0.25 mg/kg”. Also, the “proteasomal activity in PWBL” value in data set [2] (blood 90 min after administration, dose dependent (FIG. 4)) is given as “profound decrease in proteasomal activity in PWBL”. Besides, in data set [2] (oral dosing), the “activity upon oral administration (PWBL proteasome inhibition)” value is “active upon oral administration”. The concentration giving a half-maximal response (EC50) (usually the concentration giving half of the maximal effect) in the data set “In vitro cytotoxicity” lay within 10 to 200 nM. Also, the “levels of cell cycle regulatory proteins p21 and p27” value in the data set on IκBα, p21 and p27 is recorded as “increase the levels”. In the data set with IκBα, p21 and p27 (setting [5]), the “degradation of total IκBα” value was “decreased the degradation of total IκBα” and the phosphorylated-IκBα level entry is listed as “promoted the accumulation of phosphorylated-IκBα”. The “antimycobacterial effect of nitrite” value in data set [3] is on record as “able to augment the antimycobacterial effect of nitrite”. For the same compound, the “phosphorylated IκBα level” value in [4] is given as “promoted the accumulation of phosphorylated IκBα”. The compound also registered a trypsin-like inhibitory activity on proteasome of about 10 nM. In addition, the luciferase activity result in the data set on NF-κB is “decreases activity”.
